# Test results as given in patent US6812229B1, “Carbamate derivative and agricultural/horticultural fungicide” (Kumiai Chemical Industry Co., Ltd., priority 1999, dated 2004).
# Key:
# Erysiphe graminis = assay: Test for preventive effect on wheat powdery mildew; assay type: in vivo; conditions: wheat seedlings (Norin-61-go), two-leaf stage, 500 ppm active ingredient, wettable powder, total diseased area of first leaves 10 days after inoculation
# Method: 10 Wheat seeds (variety: Norin-61-go) were sown in each plastic pot having a diameter of 6 cm, and grown in a greenhouse. Wheat seedlings which reached a two-leaf stage were treated with 10 ml per pot of aqueous solutions of wettable powders prepared in accordance with Formulation Example 2, at a concentration of 500 ppm in terms of the active ingredients, and dried in the air. Then, the seedlings were inoculated with Erysiphe graminis spore and controlled in a greenhouse. 10 Days after the inoculation, the total diseased area of the first leaves in each pot was observed and evaluated on the basis of the standards shown in Table 21.
# Septoria nodorum = assay: Test for preventive effect on Septoria leaf blotch of wheat; assay type: in vivo; conditions: wheat seedlings (Norin-61-go), two-leaf stage, 50 ppm active ingredient, 10 ml per pot, evaluated 10 days after inoculation with Septoria nodorum
# Description: [table] 10 Wheat seeds (variety: Norin-61-go) were sown in each plastic pot having a diameter of 6 cm, and grown in a greenhouse. […] Then, the seedlings were inoculated with Septoria nodorum […] controlled in a greenhouse. 10 Days after the inoculation, the total diseased area of the first leaves in each pot was observed and evaluated on the basis of the standards shown in Table 21.
# Botrytis cinerea = assay: Test for preventive effect on cucumber gray mold; assay type: in vivo; conditions: cucumber seedlings (Sagami-hanziro), cotyledon stage, 500 ppm active ingredient, 10 ml per pot, evaluated 3 days after inoculation with Botrytis cinerea, 22° C moist chamber
# Method: 4 cucumber seeds (variety: Sagami-hanziro) were sown in each plastic pot having a diameter of 6 cm and grown in a greenhouse. Cucumber young seedlings which reached a cotyledon stage were treated with 10 ml per pot of aqueous solutions of wettable powders prepared in accordance with Formulation Example 2, at a concentration of 500 ppm in terms of the active ingredients and dried in the air. Then, the seedlings were inoculated with Botrytis cinerea spore by putting a paper disc soaked with the spore suspension on the surface of the cucumber cotyledons, and the seedlings were immediately placed in a moist chamber of 22° C. 3 Days after the inoculation, the total diseased area of the cotyledons in each pot was observed and evaluated on the basis of the standards shown in Table 24.
melting point [°C],SMILES,Evaluation (Erysiphe graminis),Evaluation (total diseased area of the first leaves) (Septoria nodorum),Evaluation (total diseased area of the cotyledons) (Botrytis cinerea)
104 to 107,"CON=C(C#N)c1ccc(Cl)c(CNC(=O)OC)c1 [A-3, 2-[4-chloro-3-(methoxycarbonylaminomethyl)phenyl]-2-methoxyiminoacetonitrile]",A (No diseased area),B (Diseased area of less than 5%),
124 to 127,"COC(=O)NCc1cc(C(C)=NO)ccc1Cl [A-45, Methyl N-[2-chloro-5-(1-hydroxyiminoethyl)benzyl]carbamate]",,,
,COC(=O)NCc1cc(C(C)=NOC(C)C)ccc1Cl [A-51],A (No diseased area),B (Diseased area of less than 5%),
,C=CCON=C(C)c1ccc(Cl)c(CNC(=O)OC)c1 [A-58],A (No diseased area),B (Diseased area of less than 5%),
,C#CCON=C(C)c1ccc(Cl)c(CNC(=O)OC)c1 [A-61],A (No diseased area),B (Diseased area of less than 5%),
,COC(=O)NCc1cc(C(C)=NOCCCc2ccccc2)ccc1Cl [A-62],A (No diseased area),B (Diseased area of less than 5%),
,COC(=O)NCc1cc(C(C)=NOCC(=O)OC(C)(C)C)ccc1Cl [A-64],B (Diseased area of less than 5%),A (No diseased area),
,COC(=O)NCc1cc(C(C)=NOCc2ccccc2F)ccc1Cl [A-81],A (No diseased area),B (Diseased area of less than 5%),
,COC(=O)NCc1cc(C(C)=NOCc2cccc(F)c2)ccc1Cl [A-82],A (No diseased area),B (Diseased area of less than 5%),
101 to 103,"COC(=O)NCc1cc(C(C)=NOCc2ccc(F)cc2)ccc1Cl [A-83, Methyl N-{2-chloro-5-[1-(4-fluorobenzyloxyimino)ethyl]benzyl}carbamate]",A (No diseased area),A (No diseased area),
,COC(=O)NCc1cc(C(C)=NOCc2ccccc2Br)ccc1Cl [A-87],A (No diseased area),B (Diseased area of less than 5%),
,COC(=O)NCc1cc(C(C)=NOCc2cccc(Br)c2)ccc1Cl [A-88],A (No diseased area),B (Diseased area of less than 5%),
,COC(=O)NCc1cc(C(C)=NOCc2ccc(Br)cc2)ccc1Cl [A-89],A (No diseased area),B (Diseased area of less than 5%),
,COC(=O)NCc1cc(C(C)=NOCc2ccccc2C)ccc1Cl [A-90],A (No diseased area),A (No diseased area),
,COC(=O)NCc1cc(C(C)=NOCc2cccc(C)c2)ccc1Cl [A-91],A (No diseased area),B (Diseased area of less than 5%),
,COC(=O)NCc1cc(C(C)=NOCc2ccc(C)cc2)ccc1Cl [A-92],A (No diseased area),B (Diseased area of less than 5%),
,COC(=O)NCc1cc(C(C)=NOCc2ccc(C(C)(C)C)cc2)ccc1Cl [A-98],A (No diseased area),A (No diseased area),
,COC(=O)NCc1cc(C(C)=NOCc2ccccc2C(F)(F)F)ccc1Cl [A-99],A (No diseased area),B (Diseased area of less than 5%),
,COC(=O)NCc1cc(C=NOCc2ccccc2)ccc1C [A-112],A (No diseased area),B (Diseased area of less than 5%),
,COC(=O)NCc1cc(C(C)=NOCc2ccccc2)ccc1C [A-113],A (No diseased area),A (No diseased area),
,CON=C(C)c1cccc(CON=C(C)c2ccc(Cl)c(CNC(=O)OC)c2)c1 [A-291],,A (No diseased area),3
72 to 75,"COC(=O)NCc1cc(C(C)=NOCc2cccc(C)n2)ccc1C [A-434, Methyl N-{2-methyl-5-[1-(6-methylpyridin-2-ylmethoxy)iminoethyl]benzyl}carbamate]",,,
